Earlier results on two sequences are cited in patent US20230287067A1, “HUMAN I[…] OF HEMO AND HHLA2 HUMAN ENDOGENOUS RETROVIRUSES (HERVS)” (priority 2020, published 2023).

The test system of one data set is HLA-A24. Conditions: known property of control peptide.
In another data set the test system is HLA-A2. Conditions: known property of control peptide.

Regarding “SYLIRALTL [peptide derived from influenza]”, the “binding to HLA-A24” value with HLA-A24 was “binds strongly”. For the same sequence, the “binding to HLA-A2” value in the data set on HLA-A2 is recorded as “not to HLA-A2”.

For “WLLPGTSTV [agonist peptide derived from the tumor-associated antigen Brachyury]”, the “binding to HLA-A2” value with HLA-A2 is reported as “bind strongly”.
